This is an account of results in ChEMBL document CHEMBL4011596, “Design, synthesis, and biological evaluation of a highly water-soluble psoralen-based photosensitizer” (Bioorg Med Chem, 2017).

Calls of active or inactive are those of the source. No cut-off for these calls is given here.

Assay [1] is described as follows: Induction of singlet oxygen production in DMSO assessed as decrease in DPBF level by measuring quantum yield after irradiation with halogen light by spectroscopic analysis relative to control. Further details: scale not given: the % may be the effect or the level left.
Assay [2] deals with BALB/3T3. The experiment in a line: Photocytotoxicity against mouse BALB/3T3 cells assessed as cell death at 2.9 uM preincubated for 48 hrs followed by 3.3 J/cm2 UV light irradiation for 500 sec measured after 18 hrs by Alamar blue assay relative to control. Format: functional.
The test system of assay [3] is BALB/3T3. Description: Photocytotoxicity against mouse BALB/3T3 cells at >42 uM preincubated for 48 hrs followed by 3.3 J/cm2 UV light irradiation for 500 sec measured after 18 hrs by Alamar blue assay. Format: functional, cell-based. In general terms: Alamar Blue is a resazurin reagent that responds to reducing activity.

For `COc1c2occc2c(Cn2cc(CO[C@@H]3O[C@H](CO)[C@@H](O)[C@H](O)[C@H]3O)nn2)c2ccc(=O)oc12`, the Activity is 24% in assay [1] and 15% in the assay on BALB/3T3 [2]. Also, the outcome in the assay with BALB/3T3 [3] was Active.

As to `O=c1ccc2cc3ccoc3cc2o1`, the Activity in assay [1] came out at 17%. In addition, the outcome in the assay with BALB/3T3 [3] was Active.

For the compound `COc1c2occc2c(Cn2cc(CO[C@@H]3O[C@H](CO)[C@H](O)[C@H](O)[C@H]3O)nn2)c2ccc(=O)oc12`, in assay [1], the Activity amounted to 24%. Besides, the result with BALB/3T3 [3] was Active.
